Reference: patent publication US9718822B2, “Macrocyclic compounds as Trk kinase inhibitors” (Array BioPharma, Inc., priority 2010, dated 2017)
Like-named read-outs stand apart in the source and are kept apart here.

What was measured:
[1] = DMF
[2] = biological target: histidine-tagged recombinant human TrkA, cytoplasmic domain (Homo sapiens (Human), UniProt P04629); test: TrkA ELISA Assay; assay type: biochemical; conditions: read-out: TrkA Elisa Enzyme Assay IC50; further: 2.5 nM TrkA
Description: An enzyme-linked immunosorbant assay (ELISA) was used to assess TrkA kinase activity in the presence of inhibitors. Immulon 4HBX 384-well microtiter plates (Thermo part #8755) were coated with a 0.025 mg/mL solution of poly (Glu, Ala, Tyr; 6:3:1; Sigma P3899). […] The assay buffer consisted of 25 mM MOPS pH 7.5, 0.005% (v/v) Triton X-100 and 5 mM MgCl2. The reaction mixture was removed from the plate by washing with PBS containing 0.1% (v/v) Tween 20. The phosphorylated reaction product was detected using 0.2 μg/mL of a phosphotyrosine specific monoclonal antibody (clone PY20) conjugated to horseradish peroxidase in conjunction with the TMB Peroxidase Substrate System (KPL). After the addition of 1M phosphoric acid, the chromogenic substrate color intensity was quantitated via absorbance at 450 nm. IC50 values were calculated using either a 4 or 5-parameter logistic curve fit.
Table 1 provides averaged IC50 values for compounds of the invention when tested in this assay.

[3] = biological target: His-tagged recombinant human TrkA (cytoplasmic domain) (Homo sapiens (Human), UniProt P04629); test: TrkA Binding Assay (LanthaScreen Eu Kinase Binding Assay)
Chain of His-tagged recombinant human TrkA (cytoplasmic domain) (P04629 440-796): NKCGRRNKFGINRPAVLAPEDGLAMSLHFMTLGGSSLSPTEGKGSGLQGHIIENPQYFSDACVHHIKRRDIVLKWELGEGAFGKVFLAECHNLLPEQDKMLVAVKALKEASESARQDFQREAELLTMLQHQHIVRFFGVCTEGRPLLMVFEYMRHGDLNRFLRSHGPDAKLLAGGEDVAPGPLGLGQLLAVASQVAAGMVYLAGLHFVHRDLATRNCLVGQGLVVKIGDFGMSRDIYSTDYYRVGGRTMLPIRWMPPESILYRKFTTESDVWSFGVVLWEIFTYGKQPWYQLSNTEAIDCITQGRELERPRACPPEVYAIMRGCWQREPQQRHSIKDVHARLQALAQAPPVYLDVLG
Description: The ability of a compound to bind to TrkA was measured by Invitrogen's LanthaScreen™ Eu Kinase Binding Assay. […] After a 60-minute incubation at 22° C., the reaction was measured using the EnVision via TR-FRET dual wavelength detection, and the POC was calculated from the emission ratio. The compound dose response data was fit to a 4-parameter logistic model and IC50 was defined as the concentration of compound at 50 POC.

Chain of histidine-tagged recombinant human TrkA, cytoplasmic domain (P04629 440-796): as above

Row | SMILES | IC50 [2] | IC50 [3] | other results
1 | O=C1NCCOc2ncc(F)cc2[C@H]2CCCN2c2ccn3ncc1c3n2 [Example 9, (6R)-9-fluoro-13-oxa-2,11,16,20,21,24-hexaazapentacyclo[16.5.2.0^2,6.0^7,12.0^21,25]pentacosa-1(24),7,9,11,18(25),19,22-heptaen-17-one] | – | – | ring closure, yield of all isomers ([1]; from O=C(NCCCl)c1cnn2ccc(N3CCC[C@@H]3c3cc(F)c[nH]c3=O)nc12, ether bond, Cs2CO3, […], 85.0 °C, 0.5 h): 24%; IC50 ([2]; averaged IC50 values, […] TrkA, 500 μM ATP, 25 minutes at ambient temperature): 0.001 to 0.1 µM; IC50 ([3]; averaged IC50 values, TR-FRET, 60-minute incubation at 22° C., 2% DMSO final): 0.001 to 0.1 µM
2 | O=C1NC[C@H](O)COc2ccc(F)cc2C2CC(F)(F)CN2c2ccn3ncc1c3n2 (stereo partly drawn) | – | – | ring closure, yield of all isomers ([1]; from O=C(NC[C@H](O)CCl)c1cnn2ccc(N3CC(F)(F)CC3c3cc(F)ccc3O)nc12, ether bond, Cs2CO3, 20.0 mM, 85.0 °C, 0.5 h): 44%
3 | O=C1NCCCOc2ncc(F)cc2[C@H]2COC(=O)N2c2ccn3ncc1c3n2 [Example 30, (6S)-9-fluoro-4,13-dioxa-2,11,17,21,22,25-hexaazapentacyclo [17.5.2.0^2,6.0^7,12.0^22,26]hexacosa-1(25),7(12),8,10,19(26),20,23-heptaene-3,18-dione] | 0.001 to 0.1 µM | – | ring closure, yield of all isomers ([1]; from O=C(NCCCCl)c1cnn2ccc(N3C(=O)OC[C@@H]3c3cc(F)c[nH]c3=O)nc12, ether bond, Cs2CO3, 26.7 mM, 65.0 °C, 48.5 h): 41%
4 | O=C1NC[C@H](O)COc2ccc(F)cc2[C@H]2C[C@@H](O)CN2c2ccn3ncc1c3n2 [Example 41, (4R,6R,15S)-9-fluoro-4,15-dihydroxy-13-oxa-2,17,21,22,25-pentaazapentacyclo [17.5.2.0^2,6.0^7,12.0^22,26]hexacosa-1(25),7(12),8,10,19(26),20,23-heptaen-18-one] | – | 0.001 to 0.1 µM | ring closure, yield of all isomers ([1]; from O=C(NC[C@H](O)CCl)c1cnn2ccc(N3C[C@H](O)CC3c3cc(F)ccc3O)nc12, ether bond, Cs2CO3, 21.6 mM, 85.0 °C, 0.5 h): 16.2%
5 | O=C1NCC(F)(F)COc2ncc(F)cc2[C@H]2CCCN2c2ccn3ncc1c3n2 [Example 19, (6R)-9,15,15-trifluoro-13-oxa-2,11,17,21,22,25-hexaazapentacyclo[17.5.2.0^2,6.0^7,12.0^22,26]hexacosa-1(25),7,9,11,19(26),20,23-heptaen-18-one] | 0.001 to 0.1 µM | 0.001 to 0.1 µM | –
6 | O=C1NCCCCn2cc(F)cc(c2=O)[C@H]2CCCN2c2ccn3ncc1c3n2 [Example 11, (6R)-9-fluoro-2,11,16,20,21,24-hexaazapentacyclo[16.5.2.1^7,11.0^2,6.0^21,25]hexacosa-1(24),7,9,18(25),19,22-hexaene-17,26-dione] | 0.001 to 0.1 µM | 0.001 to 0.1 µM | –
7 | O=C1NCCCc2ncc(F)cc2[C@H]2CCCN2c2ccn3ncc1c3n2 [Example 32, (6R)-9-fluoro-2,11,16,20,21,24-hexaazapentacyclo[16.5.2.0^2,6.0^7,12.0^21,25]pentacosa-1(24),7,9,11,18(25),19,22-heptaen-17-one] | – | 0.001 to 0.1 µM | ring closure, yield of all isomers ([1]; from NCCCc1ncc(F)cc1[C@H]1CCCN1c1ccn2ncc(C(=O)O)c2n1, amide bond, HATU, 8.4 mM, 3.0 h): 39%
8 | O=C1Nc2ncccc2COc2ncc(F)cc2[C@H]2CCCN2c2ccn3ncc1c3n2 [Example 39, (6R)-9-fluoro-13-oxa-2,11,19,21,25,26,29-heptaazahexacyclo [21.5.2.0^2,6.0^7,12.0^15,20.0^26,30]triaconta-1(29),7,9,11,15(20),16,18,23(30),24,27-decaen-22-one] | – | 0.001 to 0.1 µM | ring closure, yield of all isomers ([1]; from O=C(Nc1ncccc1CCl)c1cnn2ccc(N3CCC[C@@H]3c3cc(F)cnc3O)nc12, ether bond, Cs2CO3, 84.8 mM, 60.0 °C, 4.0 h, 4 steps): 2.2%
9 | O=C1OCCOc2ncc(F)cc2[C@H]2CCCN2c2ccn3ncc1c3n2 [Example 14, (6R)-9-fluoro-13,16-dioxa-2,11,20,21,24-pentaazapentacyclo[16.5.2.0^2,6.0^7,12.0^21,25]pentacosa-1(24),7,9,11,18(25),19,22-heptaen-17-one] | 0.001 to 0.1 µM | – | ring closure, yield of all isomers ([1]; from O=C(OCCCl)c1cnn2ccc(N3CCC[C@@H]3c3cc(F)c[nH]c3=O)nc12, ether bond, Cs2CO3, 22.2 mM, 90.0 °C, 16.0 h): 31%
10 | O=C1NC[C@@H](O)Cn2cc(F)cc(c2=O)[C@H]2CCCN2c2ccn3ncc1c3n2 [Example 8] | 0.001 to 0.1 µM | 0.001 to 0.1 µM | –
11 | O=C1NCCCOc2cccc(n2)[C@H]2CCCN2c2ccn3ncc1c3n2 [Example 2, (6R)-12-oxa-2,16,20,21,24,26-hexaazapentacyclo[16.5.2.1^7,11.0^2,6.0^21,25]hexacosa-1(24),7(26),8,10,18(25),19,22-heptaen-17-one] | 0.001 to 0.1 µM | 0.001 to 0.1 µM | –
12 | CC1(C)CCc2ncc(F)cc2[C@H]2CCCN2c2ccn3ncc(c3n2)C(=O)N1 [Example 37] | – | 0.001 to 0.1 µM | ring closure, yield of all isomers ([1]; from COC(=O)c1cnn2ccc(N3CCC[C@@H]3c3cc(F)cnc3CCC(C)(C)NC(=O)OC(C)(C)C)nc12, amide bond, EDCI/HOBt/Et3N, 39.4 mM, 45.0 °C, 18.0 h, 3 steps): 48.3%
